Laboratory results as given in publication PMC12993615 (The journal of pain, 2024).

Experiments:
[1] = test system: CCK1, CCK2, δ (DOP), cathepsin G; experiment: Subsequent functional assessment of secondary pharmacology hits; type: biochemical
From the text: (§1) Findings were considered significant if ≥50% inhibition of ligand binding or ≥50% stimulation/inhibition were shown in biochemical assays. Those receptors with values ≥50% were further evaluated for binding and functional half-maximal inhibitory concentrations (IC50).

in vivo [2] = details: both sexes, beagle, dog, po, 500 mg/kg
From the text: Examined parameters to assess toxicity included clinical observations, mortality and moribundity cheques, body weights, food consumption, electrocardiogram, TK, clinical chemistry, haematology, coagulation, urinalysis, gross pathology, organ weights, and histopathology.

in vivo [3] = experiment: in vivo; set-up: species or system Wistar Han rats; details: both sexes, Wistar Han, rat, po, 500 mg/kg
Description: Twenty-nine male and 29 female Wistar Han rats were assigned to 7 groups (4 main and 3 toxicokinetic (TK) groups), with 5 rats/sex/group in the main groups and […] in TK groups. Dose formulations were administered twice daily by oral gavage at 100, 300, and 1,000 mg/kg/day (50, 150, and 500 mg/kg/dose) for 14 consecutive days, with a vehicle control group dosed in the same manner. Toxicity was assessed based on clinical signs, daily body weights, food consumption, organ weights, clinical, gross, and anatomic pathology.

FABP3 = FABP3 (Homo sapiens, UniProt P05413); experiment: Fluorescence displacement binding assay (DAUDA probe)
Description: Purified FABPs were incubated with 11-(dansylamino)undecanoic acid (DAUDA) (FABP3, FABP5) or 8-anilino-1-naphthalenesulfonic acid (ANS) (FABP7) in the presence or absence of FABP inhibitors (.01–200 μM) in the binding assay buffer. FABP4 binding was assessed using a commercially available kit (Cayman Chemical, Ann Arbor). In all cases, arachidonic acid (10 μM) was included to account for maximal probe displacement. Loss of fluorescence intensity was monitored with an F5 Filtermax Multi-Mode Microplate Reader (Molecular Devices, Sunnyvale) using the following excitation and emission wavelengths (DAUDA: ex./em.= 360/535 nm; ANS: ex./em. = 360/465 nm). Following background subtraction, the fluorescence intensity values were normalised and analyzed via a one-site binding model using the GraphPadPrism (version 9.2). Ki values were determined using the following equation: Ki= IC50/(1 + ([Probe]/Kd).

[4] = Terminal plasma and brain concentrations, OIPN treatment study; type: in vivo; details: after 7 days dosing 25 mg/kg BID
From the text: Body weight was monitored throughout the study, and terminal plasma and whole brain samples were taken for bioanalysis.

[5] = target: δ [DOP; delta opioid receptor] (Homo sapiens, UniProt P41143); experiment: Secondary pharmacology panel (87 targets); type: binding; details: test concentration 30 µM
From the text: as §1

cathepsin G = target: T1, cathepsin G (Homo sapiens, UniProt P08311); experiment: Secondary pharmacology panel (87 targets); type: binding; details: test concentration 30 µM
T1 sequence (P08311 21-255): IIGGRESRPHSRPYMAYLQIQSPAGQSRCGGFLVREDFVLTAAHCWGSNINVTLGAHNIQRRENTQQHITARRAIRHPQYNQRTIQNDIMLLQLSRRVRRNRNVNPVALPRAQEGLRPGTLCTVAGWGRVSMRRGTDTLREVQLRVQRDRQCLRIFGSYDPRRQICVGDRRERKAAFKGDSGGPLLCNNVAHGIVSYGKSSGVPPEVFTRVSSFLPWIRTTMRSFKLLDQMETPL
From the text: as §1

[6] = target: T2, CCK2 [cholecystokinin B receptor] (Homo sapiens, UniProt P32239); experiment: Secondary pharmacology panel (87 targets); type: binding; details: test concentration 30 µM
T2 sequence (P32239 1-447): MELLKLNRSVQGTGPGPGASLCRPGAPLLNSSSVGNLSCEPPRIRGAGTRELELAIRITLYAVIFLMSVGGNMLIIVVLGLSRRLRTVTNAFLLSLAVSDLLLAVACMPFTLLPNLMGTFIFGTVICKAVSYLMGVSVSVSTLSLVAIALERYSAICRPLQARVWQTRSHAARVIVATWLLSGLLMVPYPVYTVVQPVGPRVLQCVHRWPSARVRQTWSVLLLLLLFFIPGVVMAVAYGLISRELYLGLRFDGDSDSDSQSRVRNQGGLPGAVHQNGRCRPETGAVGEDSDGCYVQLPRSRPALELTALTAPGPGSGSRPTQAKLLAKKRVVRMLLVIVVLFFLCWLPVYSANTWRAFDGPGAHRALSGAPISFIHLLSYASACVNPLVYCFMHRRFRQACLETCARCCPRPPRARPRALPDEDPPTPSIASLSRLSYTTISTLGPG
From the text: as §1

[7] = Plasma concentration in PKPD time course (established OIPN); type: in vivo, male Sprague Dawley rats; details: OIPN rats, single 100 mg/kg PO
Description: The doses were based on previous studies that used these antagonists in animal models of CIPN.[33]–[37]
Quantitative bioanalysis by LC-MS/MS of plasma and spinal cord levels of ART26.12 was carried out by a commercial supplier (Sygnature Discovery, Nottingham, UK).

[8] = test system: painful diabetic neuropathy; details: cited from earlier work
[9] = test system: dorsal root ganglion lipids; experiment: Lipidomic analysis of terminal tissues, OIPN prevention study; type: in vivo, male Sprague Dawley rats; details: 25 mg/kg BID, versus vehicle, P = .03
Description: Pain measurements were made on Days 5/6 (when neuropathy has normally developed) and at the end of the study. […] Terminal plasma samples were taken for bioanalysis and proteomics (Somalogic). Brain regions involved in pain processing, that is, prefrontal cortex (PFC), periaqueductal grey (PAG), whole spinal cords (SC), and L4-L6 dorsal root ganglia, were collected for lipidomic and genomic (Genewiz, China) analyses. Lipid extraction from tissues was performed as previously described.[40] Samples were flash frozen in liquid nitrogen, weighed and transferred to a centrifuge tube with HPLC-grade methanol (Thermo Fisher Scientific, Fair Lawn, NJ). Tubes were spiked with 500 picomoles d8AEA (Cayman Chemical, Ann Arbor, MI). Samples were left on ice for 2 hours, homogenised and centrifuged at 19,000 g for 20 minutes at 20°C. […] Elution samples were then analysed by HPLC MS/MS as previously described.[40] 20 μL samples were run on an Agilent XDB-C18 reversed-phase analytical column and analysed using an Applied Biosystems API 3,000 triple quadrupole mass spectrometer with electrospray ionisation (Foster City, CA). […] Concentrations in mols/gram were adjusted according to extraction efficiency, as determined by d8AEA recovery. For each individual lipid species, samples were unblinded, fold-change compared to the vehicle was calculated and significance calculated by t-test (P < .05 and P < .1) in R.

FABP3, sequence (P05413 whole entry, species assumed): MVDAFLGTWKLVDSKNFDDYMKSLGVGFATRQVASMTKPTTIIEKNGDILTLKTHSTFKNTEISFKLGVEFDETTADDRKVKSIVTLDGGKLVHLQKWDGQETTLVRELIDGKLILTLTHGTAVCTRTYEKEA
δ [DOP; delta opioid receptor], sequence (P41143 whole entry): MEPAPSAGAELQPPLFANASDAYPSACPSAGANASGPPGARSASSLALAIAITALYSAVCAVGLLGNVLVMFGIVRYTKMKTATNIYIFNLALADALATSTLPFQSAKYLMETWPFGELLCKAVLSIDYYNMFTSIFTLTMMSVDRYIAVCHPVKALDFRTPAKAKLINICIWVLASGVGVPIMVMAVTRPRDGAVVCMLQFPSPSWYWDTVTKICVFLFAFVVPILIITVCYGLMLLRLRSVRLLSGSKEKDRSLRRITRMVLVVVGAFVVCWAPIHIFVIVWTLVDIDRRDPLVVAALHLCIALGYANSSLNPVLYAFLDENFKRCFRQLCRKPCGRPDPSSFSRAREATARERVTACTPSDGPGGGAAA

COc1ccccc1[C@@H]1[C@H](C(=O)O)[C@@H](c2ccccc2OC)[C@H]1C(=O)OC1Cc2ccccc2C1 [ART26.12, (+)–3-Indan-2-yloxycarbonyl-2,4-bis(2-methoxyphenyl)cyclobutanecarboxylic acid]
functional assessment at the 4 off-targets [1]: not physiologically relevant | NOAEL at 14 days (in vivo [2]): 1000 mg/kg/day | NOAEL at 14 days (in vivo [3]): 1000 mg/kg/day | Ki (FABP3): 71.3 ± 2.4 µM | average total plasma concentration [4]: 6.5 ± .6 µM | total brain concentration [4]: .15 ± .02 µM | binding to δ (DOP) in secondary pharmacology screening [5]: greater than 50% | binding to cathepsin G in secondary pharmacology screening (cathepsin G): greater than 50% | binding to CCK2 in secondary pharmacology screening [6]: greater than 50% | peak total plasma concentration ([7]; mean ± SEM): 122 ± 13 µM | Tmax ([7]; male, Sprague Dawley, rat, plasma, read-out: time of peak plasma concentration): ~3 h | effect on established painful diabetic neuropathy [8]: treats established painful diabetic neuropathy | increase of N-docosahexaenoyl proline in DRG [9]: 9 fold
